Measurements taken from US7704946B2, “Reversible inhibition of pyramidal gap junction activity” (Caritas St. Elizabeth's Medical Center, priority 2006, dated 2010).

System: pyramidal gap junctions
Assay: Patch clamp recordings of electrically coupled pyramidal pairs in cortical slices, bath-applied soluble Aβ
Type: cell-based, rats and ferrets
Conditions: for washout time to restore gap junctional activity (reversibility): peptide washout

Row | Substance | inhibition of pyramidal gap junction activity, compared between species | washout time to restore gap junctional activity (reversibility) [min] | reduction of postjunctional responses (1 μM bath-applied for 10 minutes, FIG. 2) [%] | effect on presynaptic action potentials (application of Aβ1-40, FIG. 2)
1 | β-Amyloid [25-35] (GSNKGAIIGLM) [Aβ25-35] | same effect as Aβ 1-40 and Aβ 1-42 | 10 | – | –
2 | β-Amyloid [Aβ1-40, β-Amyloid [1-40]] | – | 10 | ~50 | not influenced
